The test has as its target T1, Poly [ADP-ribose] polymerase tankyrase-1 (Homo sapiens, UniProt O95271).
T1 sequence (O95271 whole entry): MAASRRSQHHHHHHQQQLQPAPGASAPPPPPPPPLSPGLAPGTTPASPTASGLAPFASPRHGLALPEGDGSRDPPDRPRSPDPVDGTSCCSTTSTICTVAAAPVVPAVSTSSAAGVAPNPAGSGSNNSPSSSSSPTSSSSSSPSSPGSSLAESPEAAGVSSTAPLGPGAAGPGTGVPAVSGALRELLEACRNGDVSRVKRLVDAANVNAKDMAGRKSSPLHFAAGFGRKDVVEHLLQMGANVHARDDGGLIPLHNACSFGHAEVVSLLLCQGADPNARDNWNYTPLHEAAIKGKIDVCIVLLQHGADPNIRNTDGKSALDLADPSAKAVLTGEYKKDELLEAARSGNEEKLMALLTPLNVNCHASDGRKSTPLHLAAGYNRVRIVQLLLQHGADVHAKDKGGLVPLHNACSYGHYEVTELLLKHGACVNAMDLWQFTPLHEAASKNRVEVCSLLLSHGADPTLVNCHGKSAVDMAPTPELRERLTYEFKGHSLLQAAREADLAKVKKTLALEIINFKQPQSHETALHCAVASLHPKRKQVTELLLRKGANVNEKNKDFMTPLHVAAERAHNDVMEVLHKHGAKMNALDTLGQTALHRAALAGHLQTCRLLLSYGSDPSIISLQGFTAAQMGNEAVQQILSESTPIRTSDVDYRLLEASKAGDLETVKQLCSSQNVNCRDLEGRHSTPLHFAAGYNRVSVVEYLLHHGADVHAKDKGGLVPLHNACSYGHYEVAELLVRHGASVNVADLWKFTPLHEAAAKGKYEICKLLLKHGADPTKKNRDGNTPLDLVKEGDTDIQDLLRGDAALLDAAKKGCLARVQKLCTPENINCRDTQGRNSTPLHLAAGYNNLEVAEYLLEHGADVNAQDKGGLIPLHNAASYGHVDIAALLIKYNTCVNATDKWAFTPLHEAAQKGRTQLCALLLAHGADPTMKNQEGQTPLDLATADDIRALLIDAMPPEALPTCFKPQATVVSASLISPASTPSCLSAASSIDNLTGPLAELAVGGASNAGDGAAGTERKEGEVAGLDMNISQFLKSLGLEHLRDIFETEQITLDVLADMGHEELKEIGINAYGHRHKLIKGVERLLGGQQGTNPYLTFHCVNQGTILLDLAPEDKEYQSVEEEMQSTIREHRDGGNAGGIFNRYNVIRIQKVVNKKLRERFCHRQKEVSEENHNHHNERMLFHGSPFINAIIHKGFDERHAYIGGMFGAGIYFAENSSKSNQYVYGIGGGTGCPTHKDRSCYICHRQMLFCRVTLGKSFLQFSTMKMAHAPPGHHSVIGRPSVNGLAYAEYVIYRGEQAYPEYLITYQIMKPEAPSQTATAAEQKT
Kind of test: Inhibition of human recombinant […] TNKS1 (1030 to 1317 residues) expressed in Escherichia coli assessed as inhibition by fluorescence based analysis.
In the case of `COC(=O)c1ccc(-c2nc3ccccc3c(=O)[nH]2)cc1`, the IC50 was determined as 23 nM. In the case of `CC1(c2ccc(-c3nc4ccccc4c(=O)[nH]3)cc2)NC(=O)NC1=O` (stereo not given), the IC50 amounted to 5 nM.

Consider `O=C1OCCN1c1ccc(-c2nc3ccccc3c(=O)[nH]2)cc1`, for which the IC50 came out at 15 nM. Consider `O=C(Nc1ccc(-c2nc3ccccc3c(=O)[nH]2)cc1)c1cccs1`, for which the IC50 was determined as 21 nM. Next, `NS(=O)(=O)c1ccc(-c2nc3ccccc3c(=O)[nH]2)cc1`: 12 nM.

Broadly, the IC50 is the point on the concentration scale where inhibition reaches its midpoint.

These data come from ChEMBL document CHEMBL5244261, “Insights of tankyrases: A novel target for drug discovery” (Eur J Med Chem, 2020).
